Tests used:
hMC1R = hMC1R (Homo sapiens (Human), UniProt Q01726); experiment: Transactivation test: melanocortin receptors (pCRE-Luc luciferase reporter), hMC1R; assay type: cell-based; conditions: HEK293 transfected with pCRE-Luc and hMC1R; products tested alone (agonist), 6 h incubation; % activity vs NDP-MSH 10 nM; IA: inactive
Procedure: (§1) Transactivation Test: Melanocortin Receptors
(§2) HEK293 lines are transfected with the pCRE-Luc and hMC1R, hMC3R, hMC4R or hMC5R vectors. The cells are cultured at 37° C., 5% CO2, in DMEM medium supplemented with 10% of foetal calf serum.
(§3) In the presence of an activator (agonist), the melanocortin receptor will activate the cAMP pathway which, via the CRE-Luc vector, will result in the synthesis of luciferase. After the addition of a lysis buffer containing a luminescent substrate for luciferase, it will be possible to measure the luminescence proportional to the degree of activation or of inhibition of the receptor.
(§4) The products are solubilized at 10 mM in DMSO. They are tested in the form of dose-response at a final DMSO concentration of 0.1%. The range comprising 10 points and one zero begins at 10 μM with 4-fold dilutions. For testing agonists, the products are tested alone. For determining the behaviour of antagonists, the products of interest are tested in the presence of 1 nM NDP-MSH (reference agonist). The cells are seeded at a rate of 5000 cells per well (384 well plate) in serum-free DMEM medium, and incubated overnight at 37° C., 5% CO2.
(§5) The products and the reference ligand (NDP-MSH) are added the following day, and the plates are again incubated for 6 h at 37° C., 5% CO2. After the addition of lysis buffer containing luciferin, the plates are read on a Top-Count instrument. The results are standardized as % activity using the 100% (cells+NDP-MSH at 10 nM) and 0% (cells alone) controls. An EC50 is calculated for each product using the XLFit software. The results are given in nM.

hMC4R = hMC4R (Homo sapiens (Human), UniProt P32245); experiment: Transactivation test: melanocortin receptors (pCRE-Luc luciferase reporter), hMC4R; assay type: cell-based; conditions: HEK293 transfected with pCRE-Luc and hMC4R; products tested alone (agonist), 6 h incubation; % activity vs NDP-MSH 10 nM; IA: inactive
Procedure: as §1, §2, §3, §4, §5

Sequence of hMC4R (P32245 whole entry): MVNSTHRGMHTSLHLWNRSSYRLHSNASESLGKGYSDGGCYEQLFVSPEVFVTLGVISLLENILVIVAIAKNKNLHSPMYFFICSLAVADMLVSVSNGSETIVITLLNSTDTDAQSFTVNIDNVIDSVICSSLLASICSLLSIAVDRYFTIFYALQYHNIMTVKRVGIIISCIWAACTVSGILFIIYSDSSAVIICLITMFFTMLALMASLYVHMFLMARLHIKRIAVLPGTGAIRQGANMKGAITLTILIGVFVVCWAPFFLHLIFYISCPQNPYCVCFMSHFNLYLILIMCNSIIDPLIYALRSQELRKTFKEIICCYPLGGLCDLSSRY
Sequence of hMC1R (Q01726 whole entry): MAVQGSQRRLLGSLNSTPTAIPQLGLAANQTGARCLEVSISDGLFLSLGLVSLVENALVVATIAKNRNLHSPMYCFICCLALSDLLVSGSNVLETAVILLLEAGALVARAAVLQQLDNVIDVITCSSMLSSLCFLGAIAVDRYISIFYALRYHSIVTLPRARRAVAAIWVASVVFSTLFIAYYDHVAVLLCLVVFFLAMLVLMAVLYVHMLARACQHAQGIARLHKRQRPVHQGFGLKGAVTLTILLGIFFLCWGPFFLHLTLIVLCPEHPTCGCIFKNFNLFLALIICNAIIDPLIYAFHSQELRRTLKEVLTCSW

| SMILES | EC50 (hMC1R) [nM] | EC50 (hMC4R) [nM] |
| --- | --- | --- |
| CCCCOC1(c2ccccc2C)CN(C(=O)[C@@H](Cc2ccc(OC)cc2)NC(=O)CCC2N=NC(C)=N2)C1 (stereo partly drawn) [Compound 40, N-[(R)-2-(3-butoxy-3-o-tolylazetidin-1-yl)-1-(4-methoxybenzyl)-2-oxoethyl]-3-(5-methyl-3H-[1,2,4]triazol-3-yl)propionamide] | 8000 | 500 |
| CCCCOC1(c2ccccc2C)CN(C(=O)[C@@H](Cc2ccc(OC)cc2)NC(=O)CCc2[nH]cnc2C)C1 [Compound 41, N-[(R)-2-(3-butoxy-3-o-tolylazetidin-1-yl)-1-(4-methoxybenzyl)-2-oxoethyl]-3-(5-methyl-3H-imidazol-4-yl)propionamide] | 120 | 1000 |
| CCCCCC1(c2ccccc2)CN(C(=O)[C@@H](Cc2ccc(Cl)cc2)NC(=O)CCc2c[nH]cn2)C1 [Compound 45, N-[(R)-1-(4-chlorobenzyl)-2-oxo-2-(3-pentyl-3-phenylazetidin-1-yl)ethyl]-3-(1H-imidazol-4-yl)propionamide] | 2000 | 2000 |
| CCCCCC1(c2ccccc2)CN(C(=O)[C@@H](Cc2ccc(F)cc2)NC(=O)CCc2c[nH]cn2)C1 [Compound 46, N-[(R)-1-(4-fluorobenzyl)-2-oxo-2-(3-pentyl-3-phenylazetidin-1-yl)ethyl]-3-(1H-imidazol-4-yl)propionamide] | 1000 | 4000 |
| CCCCCC1(c2ccccc2)CN(C(=O)[C@@H](Cc2ccccc2)NC(=O)CCc2c[nH]cn2)C1 [Compound 47, N-[(R)-1-benzyl-2-oxo-2-(3-pentyl-3-phenylazetidin-1-yl)ethyl]-3-(1H-imidazol-4-yl)propionamide] | 500 | 4000 |
| CCCCOC1(c2ccccc2C)CN(C(=O)[C@@H](Cc2ccc(OC)cc2)NC(=O)C=Cc2c[nH]cn2)C1 [Compound 48, N-[(R)-2-(3-butoxy-3-o-tolylazetidin-1-yl)-1-(4-methoxybenzyl)-2-oxoethyl]-3-(1H-imidazol-4-yl)acrylamide] | 4000 | 500 |
| CCCCOC1(c2ccccc2C)CN(C(=O)C(Cc2ccc(OC)cc2)NC(=O)CC(CC)c2c[nH]cn2)C1 (centres unmarked) [Compound 63, N-[2-(3-butoxy-3-o-tolylazetidin-1-yl)-1-(4-methoxybenzyl)-2-oxoethyl]-3-(1H-imidazol-4-yl)pentyramide] | 500 | 500 |
| CCCCOC1(c2ccccc2C)CN(C(=O)[C@@H](Cc2ccc(OC)cc2)NC(=O)CCc2cncn2C)C1 [Compound 67, N-[(R)-2-(3-butoxy-3-o-tolylazetidin-1-yl)-1-(4-methoxybenzyl)-2-oxoethyl]-3-(3-methyl-3H-imidazol-4-yl)propionamide] | 500 | 500 |
| CCCCOC1(c2ccccc2F)CN(C(=O)[C@@H](Cc2ccc(OC)cc2)NC(=O)CCc2c[nH]cn2)C1 [Compound 68, N-[(R)-2-[3-Butoxy-3-(2-fluorophenyl)azetidin-1-yl]-1-(4-methoxybenzyl)-2-oxoethyl]-3-(1H-imidazol-4-yl)propionamide] | 60 | 2000 |
| CCCCOC1(c2ccccc2C)CN(C(=O)[C@@H](Cc2ccc(OC)cc2)NC(=O)CCc2cn(C)cn2)C1 [Compound 69, N-[(R)-2-(3-Butoxy-3-o-tolylazetidin-1-yl)-1-(4-methoxybenzyl)-2-oxoethyl]-3-(1-methyl-1H-imidazol-4-yl)propionamide] | 1000 | 8000 |
| CCCCOC1(c2ccccc2C)CN(C(=O)[C@@H](Cc2ccc(OC)cc2)NC(=O)[C@@H](O)Cc2c[nH]cn2)C1 [Compound 71, (S)-N-[(R)-2-(3-Butoxy-3-o-tolylazetidin-1-yl)-1-(4-methoxybenzyl)-2-oxoethyl]-2-hydroxy-3-(1H-imidazol-4-yl)propionamide] | 60 | 4000 |
| CCCCOC1(c2ccccc2C)CN(C(=O)C(NC(=O)CCc2c[nH]cn2)C(O)c2ccc(OC)cc2)C1 (centres unmarked) [Compound 73, N-[1-(3-Butoxy-3-o-tolylazetidine-1-carbonyl)-2-hydroxy-2-(4-methoxyphenyl)ethyl]-3-(1H-imidazol-4-yl)propionamide] | 500 | 8000 |
| CCCCOC1(c2ccccc2C)CN(C(=O)[C@@H](Cc2ccc(OC)cc2)NC(=O)CC(O)c2c[nH]cn2)C1 (stereo partly drawn) [Compound 74, N-[(R)-2-(3-Butoxy-3-o-tolylazetidin-1-yl)-1-(4-methoxybenzyl)-2-oxoethyl]-3-hydroxy-3-(1H-imidazol-4-yl)propionamide] | 250 | 8000 |

More lines, now with the values ahead:

| EC50 (hMC1R) [nM] | EC50 (hMC4R) [nM] | SMILES |
| --- | --- | --- |
| 15 | 2000 | CCCCCC1(c2ccc(F)cc2F)CN(C(=O)[C@@H](Cc2ccc(OC)cc2)NC(=O)CCc2c[nH]cn2)C1 [Compound 49, N-[(R)-2-[3-(2,4-difluorophenyl)-3-pentylazetidin-1-yl]-1-(4-methoxybenzyl)-2-oxoethyl]-3-(1H-imidazol-4-yl)propionamide] |
| 1000 | 500 | CCCCCC1(c2ccccc2)CN(C(=O)[C@@H](Cc2cccc(C(F)(F)F)c2)NC(=O)CCc2c[nH]cn2)C1 [Compound 50, N-[(R)-2-oxo-2-(3-pentyl-3-phenylazetidin-1-yl)-1-(3-trifluoromethylbenzyl)ethyl]-3-(1H-imidazol-4-yl)propionamide] |
| 2000 | 250 | CCCCCC1(c2ccccc2)CN(C(=O)[C@@H](Cc2ccc(Cl)c(Cl)c2)NC(=O)CCc2c[nH]cn2)C1 [Compound 52, N-[(R)-1-(3,4-dichlorobenzyl)-2-oxo-2-(3-pentyl-3-phenylazetidin-1-yl)ethyl]-3-(1H-imidazol-4-yl)propionamide] |
| 1000 | 4000 | CCCCCC1(c2ccccc2)CN(C(=O)[C@@H](Cc2ccc(F)c(F)c2)NC(=O)CCc2c[nH]cn2)C1 [Compound 53, N-[(R)-1-(3,4-difluorobenzyl)-2-oxo-2-(3-pentyl-3-phenylazetidin-1-yl)ethyl]-3-(1H-imidazol-4-yl)propionamide] |
| 120 | 1000 | CCCCCC1(c2cccc(F)c2)CN(C(=O)[C@@H](Cc2ccc(OC)cc2)NC(=O)CCc2c[nH]cn2)C1 [Compound 55, N-[(R)-2-[3-(3-fluorophenyl)-3-pentylazetidin-1-yl]-1-(4-methoxybenzyl)-2-oxoethyl]-3-(1H-imidazol-4-yl)propionamide] |
| 4000 | 8000 | CCCCCC1(c2ccccc2)CN(C(=O)[C@@H](Cc2cccc(F)c2)NC(=O)CCc2c[nH]cn2)C1 [Compound 56, N-[(R)-1-(3-fluorobenzyl)-2-oxo-2-(3-pentyl-3-phenylazetidin-1-yl)ethyl]-3-(1H-imidazol-4-yl)propionamide] |
| 1000 | 4000 | CCCCCC1(c2ccccc2)CN(C(=O)[C@@H](Cc2ccccc2F)NC(=O)CCc2c[nH]cn2)C1 [Compound 57, N-[(R)-1-(2-fluorobenzyl)-2-oxo-2-(3-pentyl-3-phenylazetidin-1-yl)ethyl]-3-(1H-imidazol-4-yl)propionamide] |
| 2000 | 500 | CCCCCC1(c2ccccc2)CN(C(=O)[C@@H](Cc2ccc(Cl)cc2Cl)NC(=O)CCc2c[nH]cn2)C1 [Compound 58, N-[(R)-1-(2,4-dichlorobenzyl)-2-oxo-2-(3-pentyl-3-phenylazetidin-1-yl)ethyl]-3-(1H-imidazol-4-yl)propionamide] |
| 120 | 100 | CCCCCC1(c2cc(F)ccc2F)CN(C(=O)[C@@H](Cc2ccc(OC)cc2)NC(=O)CCc2c[nH]cn2)C1 [Compound 60, N-[(R)-2-[3-(2,5-difluorophenyl)-3-pentylazetidin-1-yl]-1-(4-methoxybenzyl)-2-oxoethyl]-3-(1H-imidazol-4-yl)propionamide] |
| 120 | 100 | CCCCCC1(c2c(F)cccc2F)CN(C(=O)[C@@H](Cc2ccc(OC)cc2)NC(=O)CCc2c[nH]cn2)C1 [Compound 61, N-[(R)-2-[3-(2,6-difluorophenyl)-3-pentylazetidin-1-yl]-1-(4-methoxybenzyl)-2-oxoethyl]-3-(1H-imidazol-4-yl)propionamide] |
| 2000 | 500 | CCCCCC1(c2ccccc2)CN(C(=O)[C@@H](Cc2ccc(OC)cc2)NC(=O)CCc2cncn2C)C1 [Compound 64, N-[(R)-1-(4-methoxybenzyl)-2-oxo-2-(3-pentyl-3-phenylazetidin-1-yl)ethyl]-3-(3-methyl-3H-imidazol-4-yl)propionamide] |
| 250 | 250 | CCCCCC1(C2CCCCC2)CN(C(=O)[C@@H](Cc2ccc(OC)cc2)NC(=O)CCc2c[nH]cn2)C1 [Compound 66, N-[(R)-2-(3-cyclohexyl-3-pentylazetidin-1-yl)-1-(4-methoxybenzyl)-2-oxoethyl]-3-(1H-imidazol-4-yl)propionamide] |

— patent publication US9630949B2, “Oxoazetidine derivatives, process for the preparation thereof and use thereof in human medicine and in cosmetics” (GALDERMA RESEARCH & DEVELOPMENT, priority 2008, dated 2017)
